In brackets after ≈: the same amount, converted by molar mass.
Tests used:
murine gut microbiome = assay: Impact on the murine fecal microbiome (16S rRNA sequencing); settings: mouse, in vivo
Method: Stool samples were collected and V4 region of the 16s rRNA gene was amplified using primers and sequenced (IonTorrent).
Fecal pellets were collected 3 days before and 3 days after antibiotic treatment and were stored at −80° C. in PBS. Sequencing of a stool pellet from each mouse from before and after treatment was performed by MR DNA (www.mrdnalab.com, Shallowater, TX, USA) on an Ion Torrent PGM. Using PCR primers, the V4 variable region of the 16SrRNA gene was amplified in a single-step 30 cycle PCR with the HotStarTaq Plus Master Mix Kit (Qiagen, USA). The following conditions were used: 94° C. for 3 minutes and 30 cycles of 94° C. for 30 seconds, 53° C. for 40 seconds and 72° C. for 1 minute, then a final elongation step for 5 minutes at 72° C. […] Barcodes and primers and then sequences<150 bp were removed. Further, sequences with homopolymer runs exceeding 6 bp and sequences with ambiguous calls were removed. The sequences were then denoised, OTUs were generated, and chimeras were removed; OTUs were clustered at 3% divergence. Taxonomic classification was performed using BLASTn against a database derived from RDPII available at www.rdp.cme.msu.edu) and NCBI (www.ncbi.nlm.nih.gov). The change in relative abundance of the most abundant genera from before to after treatment of each individual mouse was reported. Further, raw sequences were processed in Qiita (Gonzalez, A., et al. (2018). Nat Methods 15, 796-798; the contents of which are herein incorporated by reference in its entirety) and were demultiplexed, trimmed to 100 bp, and closed reference OTU picking was performed against the Greengenes database at 97% similarity (McDonald, D. et al. (2012). ISME J 6, 610-618; the contents of which are herein incorporated by reference in its entirety). The alpha diversity based on the Simpson index was calculated in Qiita. The change in the Simpson index was calculated for the fecal microbiome of each mouse from before to after treatment. Statistical significance was calculated using a one-way ANOVA with Tukey's multiple comparisons test (p<0.05).

[1] = tested on: Bacteroides fragilis ATCC 25285; format: cell-based; settings: ATCC25285; Bacteroides fragilis ATCC 25285, anaerobic; read-out: Minimum inhibitory concentration (MIC)
[2] = tested on: Streptococcus sanguinis KLE 2374; format: cell-based; settings: KLE2374; Streptococcus sanguinis KLE 2374, anaerobic, stool isolate; read-out: Minimum inhibitory concentration (MIC)
[3] = tested on: Clostridium perfringens KLE 2326; assay: microbe, parasite or virus in culture; format: cell-based; settings: Clostridium perfringens, KLE2326, read-out: Minimum inhibitory concentration (MIC)
[4] = tested on: Borrelia burgdorferi BbP1286; assay: microbe, parasite or virus in culture; settings: Borreliella burgdorferi, BBP1286, read-out: Minimum inhibitory concentration (MIC)
[5] = tested on: Bacteroides xylanisolvens KLE 2305; format: cell-based; settings: KLE2305; Bacteroides xylanisolvens KLE 2305, anaerobic, stool isolate; read-out: Minimum inhibitory concentration (MIC)
[6] = tested on: Bacteroides cellulosilyticus KLE 2342; format: cell-based; settings: KLE2342; Bacteroides cellulosilyticus KLE 2342, anaerobic, stool isolate; read-out: Minimum inhibitory concentration (MIC)
[7] = tested on: Bacteroides ovatus KLE 2306; format: cell-based; settings: KLE2306; Bacteroides ovatus KLE 2306, anaerobic, stool isolate; read-out: Minimum inhibitory concentration (MIC)
[8] = tested on: Enterobacter cloacae ATCC 13047; format: cell-based; settings: ATCC13047; Enterobacter cloacae ATCC 13047, anaerobic; read-out: Minimum inhibitory concentration (MIC)
[9] = tested on: Bifidobacterium longum ATCC BAA-999; format: cell-based; settings: ATCCBAA999; Bifidobacterium longum ATCC BAA-999, anaerobic; read-out: Minimum inhibitory concentration (MIC)
[10] = tested on: Borrelia turcica DSM 16138; settings: Borrelia turcica, DSM16138, read-out: Minimum inhibitory concentration (MIC)
[11] = tested on: Streptococcus parasanguinis KLE 2375; format: cell-based; settings: KLE2375; Streptococcus parasanguinis KLE 2375, anaerobic, stool isolate; read-out: Minimum inhibitory concentration (MIC)
Escherichia coli MG1655 = format: cell-based; settings: read-out: Minimum inhibitory concentration (MIC)
[12] = tested on: Bacteroides vulgatus KLE 2381; format: cell-based; settings: Phocaeicola vulgatus, KLE2381; Bacteroides vulgatus KLE 2381, anaerobic, stool isolate; read-out: Minimum inhibitory concentration (MIC)
[13] = tested on: Shigella sonnei ATCC 25931; format: cell-based; settings: ATCC25931; Shigella sonnei ATCC 25931, anaerobic; read-out: Minimum inhibitory concentration (MIC)
[14] = tested on: Lactobacillus reuteri ATCC 23272; format: cell-based; settings: Limosilactobacillus reuteri, ATCC23272; Lactobacillus reuteri ATCC 23272, anaerobic; read-out: Minimum inhibitory concentration (MIC)
B. burgdorferi N40 = assay: Mouse infection model (IP injection, oral gavage); settings: for Culture positive (%): C3H, 5 days, whole ear culture
[15] = tested on: Leptospira biflexa ATCC 23582; settings: Leptospira biflexa, ATCC23582, read-out: Minimum inhibitory concentration (MIC)
[16] = tested on: Blautia producta ATCC 27340; format: cell-based; settings: ATCC27340; Blautia producta ATCC 27340, anaerobic; read-out: Minimum inhibitory concentration (MIC)
[17] = tested on: Brevinema andersonii ATCC 43811; settings: Brevinema andersonii, ATCC43811, read-out: Minimum inhibitory concentration (MIC)
[18] = tested on: Salmonella typhimurium LT2 ATCC 19585; format: cell-based; settings: Salmonella enterica; Salmonella typhimurium LT2 ATCC 19585, anaerobic; read-out: Minimum inhibitory concentration (MIC)
[19] = tested on: Borreliella burgdorferi B31; settings: Borreliella burgdorferi, B31, read-out: Minimum inhibitory concentration (MIC)
Borrelia garinii = settings: Borreliella garinii, read-out: Minimum inhibitory concentration (MIC)
Borrelia afzelii = settings: Borreliella afzelii, read-out: Minimum inhibitory concentration (MIC)
[20] = tested on: Staphylococcus epidermidis KLE 2378; format: cell-based; settings: KLE2378; Staphylococcus epidermidis KLE 2378, anaerobic, stool isolate; read-out: Minimum inhibitory concentration (MIC)
[21] = tested on: Pseudomonas aeruginosa PAO1; format: cell-based; settings: Pseudomonas aeruginosa PAO1; read-out: Minimum inhibitory concentration (MIC)
[22] = 156 mg/kg, IP injection, twice a day for 5 days

SMILES	Mice with Enterococcaceae blooms (murine gut microbiome)	MIC [1]	MIC [2]	MIC [3]	MIC [4]	MIC [5]	MIC [6]	MIC [7]	MIC [8]	MIC [9]	MIC [10]	MIC [11]	MIC (Escherichia coli MG1655)	MIC [12]	MIC [13]	MIC [14]	MIC [15]	MIC [16]	MIC [17]	MIC [18]	also measured
CC1(C)S[C@@H]2[C@H](NC(=O)[C@H](N)c3ccc(O)cc3)C(=O)N2[C@H]1C(=O)O [Amoxicillin]	4/5	16 µg/mL (≈ 43.8 µM)	2 µg/mL (≈ 5.47 µM)	0.12 µg/mL (≈ 0.328 µM)	0.12 µg/mL (≈ 0.328 µM)	32 µg/mL (≈ 87.6 µM)	128 µg/mL (≈ 350 µM)	0.5 µg/mL (≈ 1.37 µM)	> 128 µg/mL	1 µg/mL (≈ 2.74 µM)	0.25 µg/mL (≈ 0.684 µM)	64 µg/mL (≈ 175 µM)	16 µg/mL (≈ 43.8 µM)	128 µg/mL (≈ 350 µM)	2 µg/mL (≈ 5.47 µM)	4 µg/mL (≈ 10.9 µM)	8 µg/mL (≈ 21.9 µM)	1 µg/mL (≈ 2.74 µM)	0.12 µg/mL (≈ 0.328 µM)	16 µg/mL (≈ 43.8 µM)	Bloom of Bacteroides (murine gut microbiome): produced a bloom of Bacteroides; Changes in the composition of the microbiota (murine gut microbiome): significant changes; Culture positive (%) (B. burgdorferi N40; oral gavage, daily dose 200 mg/kg/day): 0%; MIC [19]: 0.25 µg/mL (≈ 0.684 µM); MIC (Borrelia garinii): 0.12 µg/mL (≈ 0.328 µM); MIC (Borrelia afzelii): 0.01 µg/mL (≈ 0.0274 µM); MIC [20]: > 128 µg/mL; MIC [21]: > 128 µg/mL
CO/N=C(\C(=O)N[C@@H]1C(=O)N2C(C(=O)O)=C(CSc3nc(=O)c(=O)[nH]n3C)CS[C@H]12)c1csc(N)n1 [Ceftriaxone]	5/5	2 µg/mL (≈ 3.61 µM)	0.12 µg/mL (≈ 0.216 µM)	< 0.01 µg/mL	0.01 µg/mL (≈ 0.018 µM)	64 µg/mL (≈ 115 µM)	128 µg/mL (≈ 231 µM)	0.02 µg/mL (≈ 0.0361 µM)	64 µg/mL (≈ 115 µM)	4 µg/mL (≈ 7.21 µM)	0.06 µg/mL (≈ 0.108 µM)	0.06 µg/mL (≈ 0.108 µM)	0.06 µg/mL (≈ 0.108 µM)	128 µg/mL (≈ 231 µM)	0.25 µg/mL (≈ 0.451 µM)	32 µg/mL (≈ 57.7 µM)	2 µg/mL (≈ 3.61 µM)	0.5 µg/mL (≈ 0.902 µM)	0.01 µg/mL (≈ 0.018 µM)	0.25 µg/mL (≈ 0.451 µM)	B. burgdorferi culture (% positive) (B. burgdorferi N40; [22]): 0%; Mean # of B. burgdorferi/10 mg of skin tissue (qPCR) (B. burgdorferi N40; [22]): <1 B. burgdorferi/10 mg of skin t; Culture positive (%) (B. burgdorferi N40; intraperitoneal injection, daily dose 312 mg/kg/day): 0%; MIC [19]: 0.01 µg/mL (≈ 0.018 µM); MIC (Borrelia garinii): 0.01 µg/mL (≈ 0.018 µM); MIC (Borrelia afzelii): < 0.01 µg/mL; MIC [20]: 1 µg/mL (≈ 1.8 µM); MIC [21]: 64 µg/mL (≈ 115 µM)
